EP4772634A1, “DOUBLE-STRANDED RNA TARGETING COAGULATION FACTOR XI” (Chia Tai Tianqing Pharmaceutical Group Co., Ltd., priority 2023, dated 2025)

Assays:
[1] = tested on: human coagulation factor XI protein; experiment: In vivo activity in AAV-FXI model mice, serum FXI protein by ELISA; details: AAV-FXI mice (C57BL/6 male), single subcutaneous 3 mg/kg
Experimental: 4-6 week old C57BL/6 male mice were injected via the tail vein with 1 × 10^11 vg of AAV8-FXI (WZ Biosciences). On day 28 after modeling, mice with an hFXI protein content of greater than 100 ng/mL were selected. The mice were randomly divided into groups based on body weight and were injected with 3 mg/kg of the dsRNA ligand conjugate of the present application (amount calculated based on siRNA only) on day 0. Orbital blood was collected on day 7, day 14, day 35, and day 56. Serum was separated, and the content of the coagulation factor XI protein in the serum at each time point was measured using a Human Coagulation Factor XI ELISA kit (Thermo, Cat. No. EH118RB).
(§1) The coagulation factor XI protein inhibition rate was calculated according to the following equation: [formula]
The content of the coagulation factor XI protein in animal serum was measured before and on day 7, day 14, day 35, and day 56 after a single subcutaneous administration of the dsRNA ligand conjugate of the present application at a dose of 3 mg/kg to AAV-FXI mice (see Table 15). […] Table 15. In vivo experimental design

[2] = tested on: human coagulation factor XI protein; experiment: In vivo activity in human coagulation factor XI model mice (Experimental Example 3), plasma FXI protein by ELISA; details: humanized mice
Experimental: The humanized mice used in this experimental example were purchased from Cyagen Biosciences Co., Ltd. The humanized mice were randomly divided into groups, with 4 mice per group. The compound and PBS control (pH = 7.2) were administered to each group of mice, respectively. The day of the first administration was designated as day 0 of the experiment. The corresponding compound solutions were administered via a single subcutaneous injection based on animal body weight, at administration doses of 1 mg/kg and 5 mg/kg. PBS control mice were each administered PBS, with an administration volume of 10 mL/kg body weight. Orbital blood was collected before administration and on day 7, day 14, day 28, day 42, and day 63 after administration. Plasma was separated, and the content of the coagulation factor XI protein in the plasma was measured at each time point.
About 165 µL of blood was collected from the orbital veins for plasma collection. A 3.8% trisodium citrate anticoagulant was added to the whole blood in a volume ratio of 1:9 (anticoagulant:[…], v/v), and the mixture was centrifuged at 3000 rpm at 20 °C for 15 min to collect plasma. The content of the coagulation factor XI protein in the plasma obtained from the above groups of mice (test groups administered the compound and PBS control group) was measured using a Human Coagulation Factor XI ELISA kit (Sigma, Cat. No. RAB1385-1KT).
as §1
Table 11 lists the measurement of FXI protein content in animal plasma before and on day 7, day 14, day 28, day 42, and day 63 after a single subcutaneous administration of siRNA ligand conjugates (TD01M01L01, TD02M01L01) at doses of 1 mg/kg and 5 mg/kg to humanized homozygous mice. […] Table 11. In vivo experimental design

[3] = tested on: coagulation factor XI; experiment: In vivo activity in cynomolgus monkeys, plasma FXI activity; details: cynomolgus monkey plasma, subcutaneous once, 4.2 mg/kg (first row, dose by order of Table 17)
Experimental: On day 7 before administration, female cynomolgus monkeys weighing 2-4 kg were fasted overnight, and about 1 mL of blood was collected from the femoral vein. Plasma was collected by centrifugation. FXI protein (Human Coagulation Factor XI ELISAkit, Thermo, Cat. No. EH118RB), FXI activity (coagulation factor XI assay kit, Stago, Cat. No. 00723), and APTT (activated partial thromboplastin time assay kit, Stago, Cat. No. 00595) were measured. The monkeys were evenly divided into groups based on these indicators. On day 0, the dsRNA ligand conjugates of the present application (TD02M02L01, etc.) were injected. On day 0, day 3, day 7, day 14, day 21, day 28, day 37, day 54, and day 68, plasma was collected to measure plasma FXI protein, FXI activity, and activated partial thromboplastin time (APTT).
The coagulation factor XI activity inhibition rate was calculated according to the following equation: [formula]
The content of the coagulation factor XI protein, the FXI activity, and the activated partial thromboplastin time in animal plasma were measured before and on day 0, day 3, day 7, day 14, day 21, day 28, day 37, day 54, and day 68 after the subcutaneous administration of the dsRNA ligand conjugates of the present application at doses of 4.2 mg/kg and 14 mg/kg to cynomolgus monkeys (Table 17). […] Table 17. In vivo experimental design

[4] = tested on: human coagulation factor XI protein; experiment: In vivo activity in human coagulation factor XI model mice (Experimental Example 4), FXI protein by ELISA; details: female humanized homozygous mice, single subcutaneous 3 mg/kg
Experimental: The humanized mice used in this experimental example were purchased from Cyagen Biosciences Co., Ltd. The female humanized homozygous mice were randomly divided into groups, with 4 mice per group. The compound and PBS control (pH = 7.2) were administered to each group of mice, respectively. The day of the first administration was designated as day 0 of the experiment. The corresponding compound solutions were administered via a single subcutaneous injection based on animal body weight, at an administration dose of 3 mg/kg. PBS control mice were each administered PBS, with an administration volume of 10 mL/kg body weight. Orbital blood was collected before administration and on day 3, day 7, day 14, day 21, day 28, day 42, day 56, and day 70 after administration. Serum was separated, and the content of the coagulation factor XI protein in the serum at each time point was measured using a Human Coagulation Factor XI ELISA kit (Thermo, Batch No. 2350072722, Cat. No. EH118RB).
as §1
Table 13 lists the measurement of coagulation factor XI protein content in animal plasma before and on day 3, day 7, day 14, day 21, day 28, day 42, day 56, and day 70 after a single subcutaneous administration of siRNA ligand conjugates at a dose of 3 mg/kg to humanized homozygous mice. […] Table 13. In vivo experimental design

“TD02M02L01: dsRNA ligand conjugate: TD02M02 with L01 (GalNAc) ligand at 3' end of sense strand SEQ ID NO 35; antisense SEQ ID NO 36 (sense GGATGATTTTCTTATATCA; antisense TGATATAAGAAAATCATCCTG; GalNAc L01 ligand at sense 3' end, 2'-OMe/2'-F, pattern not given here)” was tested, and the “Relative inhibition rate (%) of FXI protein” value ([1]; D7) was 96.3%, the “Relative inhibition rate (%) of FXI protein” value ([1]; D14) was 97.3% and the “Relative inhibition rate (%) of FXI protein” value ([1]; D35) was 86.0%. The “Relative inhibition rate (%) of FXI protein” value ([1]; D56) was 57.4%, the “Relative inhibition rate (%) of FXI protein” value ([2]; single subcutaneous 1 mg/kg, D7) was 66.7% and the “Relative inhibition rate (%) of FXI protein” value ([2]; single subcutaneous 1 mg/kg, D14) was 70.2%. The “Relative inhibition rate (%) of FXI protein” value ([2]; single subcutaneous 1 mg/kg, D28) was 58.6%, the “Relative inhibition rate (%) of FXI protein” value ([2]; single subcutaneous 1 mg/kg, D42) was 70.5% and the “Relative inhibition rate (%) of FXI protein” value ([2]; single subcutaneous 1 mg/kg, D63) was 47.0%. For the same substance, the “Relative inhibition rate (%) of FXI protein” value ([2]; single subcutaneous 5 mg/kg, D7) was 91.5%, the “Relative inhibition rate (%) of FXI protein” value ([2]; single subcutaneous 5 mg/kg, D14) was 93.5% and the “Relative inhibition rate (%) of FXI protein” value ([2]; single subcutaneous 5 mg/kg, D28) was 88.4%. For the same substance, the “Relative inhibition rate (%) of FXI protein” value ([2]; single subcutaneous 5 mg/kg, D42) was 86.9%, the “Relative inhibition rate (%) of FXI protein” value ([2]; single subcutaneous 5 mg/kg, D63) was 66.3% and the “Relative inhibition rate (%) of FXI activity” value ([3]; D3) was 20.5%. For the same substance, the “Relative inhibition rate (%) of FXI activity” value ([3]; D7) was 66.0%, the “Relative inhibition rate (%) of FXI activity” value ([3]; D14) was 84.7% and the “Relative inhibition rate (%) of FXI activity” value ([3]; D21) was 88.9%. The “Relative inhibition rate (%) of FXI activity” value ([3]; D28) was 89.2%, the “Relative inhibition rate (%) of FXI activity” value ([3]; D37) was 92.6% and the “Relative inhibition rate (%) of FXI activity” value ([3]; D54) was 91.4%. For the same substance, the “Relative inhibition rate (%) of FXI protein” value ([4]; D3) was 74.4%, the “Relative inhibition rate (%) of FXI protein” value ([4]; D7) was 93.7% and the “Relative inhibition rate (%) of FXI protein” value ([4]; D14) was 86.4%. For the same substance, the “Relative inhibition rate (%) of FXI protein” value ([4]; D21) was 88.0%, the “Relative inhibition rate (%) of FXI protein” value ([4]; D28) was 84.9% and the “Relative inhibition rate (%) of FXI protein” value ([4]; D42) was 63.3%. For the same substance, the “Relative inhibition rate (%) of FXI protein” value ([4]; D56) was 50.4% and the “Relative inhibition rate (%) of FXI protein” value ([4]; D70) was 21.4%.
